# Measured values from patent US4472404A, “8-Quinolinyl carbamates and their use as urinary tract antimicrobials” (priority 1982, dated 1984).
# Assays:
# Type in all cases: cell-based
# Proteus mirabilis 470/1 = assay: Minimum inhibitory concentration, urinary tract organisms (Example 13); details: Pm 470/1, read-out: Minimum Inhibitory Concentration
# Protocol: (§1) The test compound was added to molten agar as a solution (when conveniently soluble in a solvent such as dimethylformamide) or a suspension forming a mixture having a concentration of 0.05 percent (500 ppm). The mixture was stirred and poured into plates to harden. When hardened, the plates were inoculated with various bacteria and fungi. The bacteria-inoculated plates were incubated at 37° C. for 24 hours, while the fungi-inoculated plates were incubated for about 72-120 hours. Following incubation, the plates were examined for growth or inhibition of the respective organisms.
# (§2) After the initial readings, compounds showing sufficient activity were re-tested at various concentrations to determine the minimum inhibitory concentration (in ppm) of the compounds of the invention against the various bacteria and fungi tested.
# (§3) Following a procedure substantially the same as that described in Example 12, the minimum inhibitory concentration for the compounds described herein was determined for various organisms representative of those commonly associated with urinary tract infections.
# (§4) The organisms used in this procedure and the abbreviations designated in Table 3 are as follows: […]
# [1] = system: Klebsiella pneumoniae ATCC 23357; assay: as above; details: ATCC23357, Kp 23357, read-out: Minimum Inhibitory Concentration
# Protocol: as §1, §2, §3, §4
# Serratia marcescens M-1 = assay: as above; details: M1, Sr M-1, read-out: Minimum Inhibitory Concentration
# Protocol: as §1, §2, §3, §4
# [2] = system: Klebsiella pneumoniae M-2; assay: as above; details: M2, Kp M-2, read-out: Minimum Inhibitory Concentration
# Protocol: as §1, §2, §3, §4
# [3] = system: Pseudomonas aeruginosa ATCC 7700; assay: as above; details: ATCC7700, Pa 7700, read-out: Minimum Inhibitory Concentration
# Protocol: as §1, §2, §3, §4
# [4] = system: Staphylococcus aureus ATCC 25923; assay: as above; details: ATCC25923, Sa 25923, read-out: Minimum Inhibitory Concentration
# Protocol: as §1, §2, §3, §4
# [5] = system: Escherichia coli ATCC 4157; assay: as above; details: ATCC4157, Ec 4157, read-out: Minimum Inhibitory Concentration
# Protocol: as §1, §2, §3, §4
# [6] = system: Klebsiella pneumoniae M-1; assay: as above; details: M1, Kp M-1, read-out: Minimum Inhibitory Concentration
# Protocol: as §1, §2, §3, §4
# [7] = system: Escherichia coli ATCC 25922; assay: as above; details: ATCC25922, Ec 25922, read-out: Minimum Inhibitory Concentration
# Protocol: as §1, §2, §3, §4
# [8] = system: Enterobacter aerogenes ATCC 13048; assay: as above; details: Klebsiella aerogenes, ATCC13048; Ea 13048; read-out: Minimum Inhibitory Concentration
# Protocol: as §1, §2, §3, §4
# [9] = system: Klebsiella pneumoniae M-6; assay: as above; details: M6, Kp M-6, read-out: Minimum Inhibitory Concentration
# Protocol: as §1, §2, §3, §4
# [10] = system: Pseudomonas aeruginosa ATCC 27853; assay: as above; details: ATCC27853, Pa 27853, read-out: Minimum Inhibitory Concentration
# Protocol: as §1, §2, §3, §4
# [11] = system: Escherichia coli ATCC 11229; assay: as above; details: ATCC11229, Ec 11229, read-out: Minimum Inhibitory Concentration
# Protocol: as §1, §2, §3, §4
# [12] = system: Pseudomonas aeruginosa PRD-10; assay: as above; details: PRD10, Pa PRD-10, read-out: Minimum Inhibitory Concentration
# Protocol: as §1, §2, §3, §4
# [13] = system: Escherichia coli ATCC 9723; assay: as above; details: ATCC9723, Ec 9723, read-out: Minimum Inhibitory Concentration
# Protocol: as §1, §2, §3, §4
# [14] = system: Pseudomonas aeruginosa ATCC 10145; assay: as above; details: ATCC10145, Pa 10145, read-out: Minimum Inhibitory Concentration
# Protocol: as §1, §2, §3, §4
# Streptococcus mutans = assay: Agar-plate minimum inhibitory concentration (Example 12); details: agar, 37° C., 24 hours, read-out: Minimum Inhibitory Concentration
# Protocol: as §1, §2
# Candida albicans = assay: as above; details: agar, 72-120 hours, read-out: Minimum Inhibitory Concentration
# Protocol: as §1, §2
# Candida pelliculosa = assay: as above; details: Hansenula anomala; Candida pelliculosa; agar, 72-120 hours; read-out: Minimum Inhibitory Concentration
# Protocol: as §1, §2
# Salmonella typhosa = assay: as above; details: Salmonella enterica; Salmonella typhosa; agar, 37° C., 24 hours; read-out: Minimum Inhibitory Concentration
# Protocol: as §1, §2
# [15] = system: Trichophyton mentagrophytes; assay: as above; details: agar, 72-120 hours, read-out: Minimum Inhibitory Concentration
# Protocol: as §1, §2
# Bacillus subtilis = assay: as above; details: agar, 37° C., 24 hours, read-out: Minimum Inhibitory Concentration
# Protocol: as §1, §2
# Aspergillus niger = assay: as above; details: agar, 72-120 hours, read-out: Minimum Inhibitory Concentration
# Protocol: as §1, §2
# Ceratocystis ips = assay: as above; details: Ceratocystis ips; agar, 72-120 hours; read-out: Minimum Inhibitory Concentration
# Protocol: as §1, §2
structure (smiles),measurement,setting,value
"O=C(NCCCl)Oc1ccc(Cl)c2cccnc12 [Example 6, 5-Chloro-8-quinolinyl N-(2-chloroethyl)carbamate]",MIC,Proteus mirabilis 470/1,250 µg/mL
same,MIC,[1],250 µg/mL
same,MIC,Serratia marcescens M-1,500 µg/mL
same,MIC,[2],500 µg/mL
same,MIC,[3],500 µg/mL
same,MIC,[4],< 5 µg/mL
same,MIC,[5],250 µg/mL
same,MIC,[6],250 µg/mL
same,MIC,[7],75 µg/mL
same,MIC,[8],500 µg/mL
same,MIC,[9],250 µg/mL
same,MIC,[10],500 µg/mL
same,MIC,[11],75 µg/mL
same,MIC,[12],500 µg/mL
same,MIC,[13],50 µg/mL
"CCOC(=O)CNC(=O)Oc1c(Cl)cc(Cl)c2cccnc12 [Example 4, Ethyl N-(((5,7-dichloro-8-quinolinyl)oxy)carbonyl)glycinate]",MIC,Proteus mirabilis 470/1,10 µg/mL
same,MIC,[1],25 µg/mL
same,MIC,Serratia marcescens M-1,25 µg/mL
same,MIC,[2],25 µg/mL
same,MIC,[3],50 µg/mL
same,MIC,[4],10 µg/mL
same,MIC,[5],10 µg/mL
same,MIC,[6],25 µg/mL
same,MIC,[7],10 µg/mL
same,MIC,[8],25 µg/mL
same,MIC,[9],25 µg/mL
same,MIC,[10],50 µg/mL
same,MIC,[14],10 µg/mL
same,MIC,[11],10 µg/mL
same,MIC,[12],50 µg/mL
same,MIC,[13],10 µg/mL
same,MIC,Streptococcus mutans,500 µg/mL
same,MIC,Candida albicans,10 µg/mL
same,MIC,Candida pelliculosa,5 µg/mL
same,MIC,Salmonella typhosa,10 µg/mL
same,MIC,[15],10 µg/mL
same,MIC,Bacillus subtilis,1 µg/mL
same,MIC,Aspergillus niger,10 µg/mL
same,MIC,Ceratocystis ips,50 µg/mL
"CCOC(=O)CNC(=O)Oc1cccc2ccc(C)nc12 [Example 3, Ethyl N-(((2-methyl-8-quinolinyl)oxy)carbonyl)glycinate]",MIC,Proteus mirabilis 470/1,250 µg/mL
same,MIC,[1],250 µg/mL
same,MIC,Serratia marcescens M-1,750 µg/mL
same,MIC,[2],250 µg/mL
same,MIC,[3],> 1000 µg/mL
same,MIC,[4],25 µg/mL
same,MIC,[5],100 µg/mL
same,MIC,[6],250 µg/mL
same,MIC,[7],75 µg/mL
same,MIC,[8],250 µg/mL
same,MIC,[9],250 µg/mL
same,MIC,[10],> 1000 µg/mL
same,MIC,[14],250 µg/mL
same,MIC,[11],75 µg/mL
same,MIC,[12],> 1000 µg/mL
same,MIC,[13],100 µg/mL
same,MIC,Streptococcus mutans,500 µg/mL
same,MIC,Candida albicans,500 µg/mL
same,MIC,Candida pelliculosa,500 µg/mL
same,MIC,Salmonella typhosa,50 µg/mL
same,MIC,[15],500 µg/mL
same,MIC,Bacillus subtilis,10 µg/mL
same,MIC,Aspergillus niger,500 µg/mL
same,MIC,Ceratocystis ips,500 µg/mL
"CCOC(=O)CNC(=O)Oc1ccc(Cl)c2cccnc12.Cl [Example 8, Ethyl N-(((5-chloro-8-quinolinyl)oxy)carbonyl)glycinate hydrochloride salt]",MIC,Proteus mirabilis 470/1,50 µg/mL
same,MIC,[1],50 µg/mL
same,MIC,Serratia marcescens M-1,75 µg/mL
same,MIC,[2],50 µg/mL
same,MIC,[3],100 µg/mL
same,MIC,[4],10 µg/mL
same,MIC,[5],25 µg/mL
same,MIC,[6],50 µg/mL
same,MIC,[7],25 µg/mL
same,MIC,[8],50 µg/mL
same,MIC,[9],25 µg/mL
same,MIC,[10],100 µg/mL
same,MIC,[14],75 µg/mL
same,MIC,[11],25 µg/mL
same,MIC,[12],100 µg/mL
same,MIC,[13],25 µg/mL
same,MIC,Streptococcus mutans,> 500 µg/mL
same,MIC,Candida albicans,10 µg/mL
same,MIC,Candida pelliculosa,10 µg/mL
same,MIC,Salmonella typhosa,50 µg/mL
same,MIC,[15],10 µg/mL
same,MIC,Bacillus subtilis,1 µg/mL
same,MIC,Aspergillus niger,10 µg/mL
same,MIC,Ceratocystis ips,50 µg/mL
"CCOC(=O)CNC(=O)Oc1ccc(Cl)c2cccnc12 [Example 1, Ethyl N-(((5-chloro-8-quinolinyl)oxy)-carbonyl)glycinate]",MIC,Proteus mirabilis 470/1,50 µg/mL
same,MIC,[1],25 µg/mL
same,MIC,Serratia marcescens M-1,50 µg/mL
same,MIC,[2],50 µg/mL
same,MIC,[3],100 µg/mL
same,MIC,[4],≤ 5 µg/mL
same,MIC,[5],25 µg/mL
same,MIC,[6],50 µg/mL
same,MIC,[7],25 µg/mL
same,MIC,[8],50 µg/mL
same,MIC,[9],25 µg/mL
same,MIC,[10],100 µg/mL
same,MIC,[14],25 µg/mL
same,MIC,[11],25 µg/mL
same,MIC,[12],100 µg/mL
same,MIC,[13],25 µg/mL
same,MIC,Streptococcus mutans,100 µg/mL
same,MIC,Candida albicans,10 µg/mL
same,MIC,Candida pelliculosa,10 µg/mL
same,MIC,Salmonella typhosa,50 µg/mL
same,MIC,[15],10 µg/mL
same,MIC,Bacillus subtilis,10 µg/mL
same,MIC,Aspergillus niger,10 µg/mL
same,MIC,Ceratocystis ips,50 µg/mL
